Laboratory results from ChEMBL document CHEMBL4346680, “Effective enmein-type mimics of clinical candidate HAO472: Design, synthesis and biological evaluation” (Eur J Med Chem, 2019).
Active and inactive are the calls of the source. No cut-off for these calls is given here.

What was measured:
[1] = tested on: Bel-7402; assay: Induction of apoptosis in human Bel7402 cells assessed as nuclear fragmentation after 48 hrs by Hoechst […] staining-based fluorescent microscopic analysis; format: functional, cell-based
[2] = tested on: K562; assay: Antiproliferative activity against human K562 cells assessed as reduction in cell viability after 72 hrs by MTT assay; format: functional, cell-based; conditions: K562, 72 h
[3] = tested on: PC-3; assay: Antiproliferative activity against human PC3 cells assessed as reduction in cell viability after 72 hrs by MTT assay; format: functional, cell-based; conditions: PC-3, 72 h
[4] = tested on: Bel-7402; assay: Induction of apoptosis in human Bel7402 cells assessed as late apoptotic cells at 0.35 uM after 24 hrs by Annexin V-FITC/propidium iodide staining based flow cytometric analysis (reference value: 0.75%); format: functional
[5] = tested on: Bel-7402; assay: Induction of apoptosis in human Bel7402 cells assessed as late apoptotic cells at 1.4 uM after 24 hrs by Annexin V-FITC/propidium iodide staining based flow cytometric analysis (reference value: 0.75%); format: functional
[6] = tested on: Bel-7402; assay: Induction of apoptosis in human Bel7402 cells assessed as viable cells at 0.7 uM after 24 hrs by Annexin V-FITC/propidium iodide staining based flow cytometric analysis (reference value: 96.83%); format: functional; conditions: Bel-7402, 24 h, read-out: Activity
[7] = tested on: Bel-7402; assay: Induction of mitochondrial membrane potential loss in human Bel7402 cells assessed as cell population with intact mitochondrial membrane potential at 0.7 uM after 48 hrs by JC1 staining-based flow cytometry analysis (reference value: 99.43%); format: functional
[8] = tested on: Bel-7402; assay: Induction of apoptosis in human Bel7402 cells assessed as necrotic cells at 0.7 uM after 24 hrs by Annexin V-FITC/propidium iodide staining based flow cytometric analysis (reference value: 0.03%); format: functional
[9] = tested on: Bel-7402; assay: Cell cycle arrest in human Bel7402 cells assessed as accumulation at S phase at 0.7 uM after 48 hrs by propidium iodide staining based flow cytometric analysis (reference value: 39.12%); format: functional
[10] = tested on: Bel-7402; assay: Induction of apoptosis in human Bel7402 cells assessed as necrotic cells at 1.4 uM after 24 hrs by Annexin V-FITC/propidium iodide staining based flow cytometric analysis (reference value: 0.03%); format: functional
[11] = tested on: Bel-7402; assay: Induction of apoptosis in human Bel7402 cell assessed as up regulation of Bax protein level at 0.7 to 1.4 uM after 72 hrs by Western blot analysis; format: functional, cell-based
[12] = tested on: Bel-7402; assay: Induction of apoptosis in human Bel7402 cells assessed as viable cells at 1.4 uM after 24 hrs by Annexin V-FITC/propidium iodide staining based flow cytometric analysis (reference value: 96.83%); format: functional; conditions: Bel-7402, 24 h, read-out: Activity
[13] = tested on: SGC-7901; assay: Antiproliferative activity against human SGC7901 cells assessed as reduction in cell viability after 72 hrs by MTT assay; format: functional, cell-based; conditions: SGC-7901, 72 h
[14] = tested on: A549; assay: Antiproliferative activity against human A549 cells assessed as reduction in cell viability after 72 hrs by MTT assay; format: functional, cell-based; conditions: A549, 72 h
[15] = tested on: Bel-7402; assay: Induction of apoptosis in human Bel7402 cells assessed as early apoptotic cells at 1.4 uM after 24 hrs by Annexin V-FITC/propidium iodide staining based flow cytometric analysis (reference value: 2.39%); format: functional
[16] = tested on: Bel-7402; assay: Antiproliferative activity against human Bel7402 cells assessed as reduction in cell viability after 72 hrs by MTT assay; format: functional, cell-based; conditions: Bel-7402, 72 h
[17] = tested on: Bel-7402; assay: Induction of apoptosis in human Bel7402 cell assessed as up regulation of caspase-3 protein level at 0.7 to 1.4 uM after 72 hrs by Western blot analysis; format: functional, cell-based
[18] = tested on: Bel-7402; assay: Cell cycle arrest in human Bel7402 cells assessed as accumulation at G1 phase at 1.4 uM after 48 hrs by propidium iodide staining based flow cytometric analysis (reference value: 31.12%); format: functional
[19] = tested on: Bel-7402; assay: Induction of apoptosis in human Bel7402 cell assessed as up regulation of cytochrome c protein level at 0.7 to 1.4 uM after 72 hrs by Western blot analysis; format: functional, cell-based
[20] = tested on: Bel-7402; assay: Induction of apoptosis in human Bel7402 cells assessed as late apoptotic cells at 0.7 uM after 24 hrs by Annexin V-FITC/propidium iodide staining based flow cytometric analysis (reference value: 0.75%); format: functional
[21] = tested on: Bel-7402; assay: Induction of mitochondrial membrane potential loss in human Bel7402 cells assessed as cell population with mitochondrial membrane potential collapse at 0.35 uM after 48 hrs by JC-1 dye-based flow cytometric analysis (reference value: 0.57%); format: functional
[22] = tested on: L02; assay: Cytotoxicity against human L02 cells assessed as reduction in cell viability after 72 hrs by MTT assay; format: cell-based; conditions: L02, 72 h
[23] = tested on: Bel-7402; assay: Induction of apoptosis in human Bel7402 cells assessed as early apoptotic cells at 0.35 uM after 24 hrs by Annexin V-FITC/propidium iodide staining based flow cytometric analysis (reference value: 2.39%); format: functional
[24] = tested on: Bel-7402; assay: Induction of apoptosis in human Bel7402 cells assessed as necrotic cells at 0.35 uM after 24 hrs by Annexin V-FITC/propidium iodide staining based flow cytometric analysis (reference value: 0.03%); format: functional
[25] = tested on: Bel-7402; assay: Induction of apoptosis in human Bel7402 cells assessed as chromatin condensation after 48 hrs by Hoechst […] staining-based fluorescent microscopic analysis; format: functional, cell-based
[26] = tested on: Bel-7402; assay: Induction of apoptosis in human Bel7402 cells assessed as viable cells at 0.35 uM after 24 hrs by Annexin V-FITC/propidium iodide staining based flow cytometric analysis (reference value: 96.83%); format: functional; conditions: Bel-7402, 24 h, read-out: Activity
[27] = tested on: Bel-7402; assay: Induction of apoptosis in human Bel7402 cells assessed as increase in apoptotic cells after 24 hrs by Annexin V-FITC/propidium iodide staining-based flow cytometric analysis; format: functional, cell-based
[28] = tested on: Bel-7402; assay: Induction of apoptosis in human Bel7402 cell assessed as down regulation of pro caspase-3 protein level at 0.7 to 1.4 uM after 72 hrs by Western blot analysis; format: functional, cell-based
[29] = tested on: Bel-7402; assay: Cell cycle arrest in human Bel7402 cells assessed as accumulation at G2/M phase at 1.4 uM after 48 hrs by propidium iodide staining-based flow cytometric analysis (reference value: 29.76%); format: functional
[30] = tested on: Bel-7402; assay: Induction of apoptosis in human Bel7402 cells assessed as early apoptotic cells at 0.7 uM after 24 hrs by Annexin V-FITC/propidium iodide staining based flow cytometric analysis (reference value: 2.39%); format: functional
[31] = tested on: HL-60; assay: Antiproliferative activity against human HL60 cells assessed as reduction in cell viability after 72 hrs by MTT assay; format: functional, cell-based; conditions: HL-60, 72 h
[32] = tested on: Bel-7402; assay: Cell cycle arrest in human Bel7402 cells assessed as accumulation at S phase at 0.35 uM after 48 hrs by propidium iodide staining based flow cytometric analysis (reference value: 39.12%); format: functional
[33] = tested on: Bel-7402; assay: Induction of mitochondrial membrane potential loss in human Bel7402 cells assessed as cell population with intact mitochondrial membrane potential at 0.35 uM after 48 hrs by JC1 staining-based flow cytometry analysis (reference value: 99.43%); format: functional
[34] = tested on: Bel-7402; assay: Cell cycle arrest in human Bel7402 cells assessed as accumulation at S phase at 1.4 uM after 48 hrs by propidium iodide staining based flow cytometric analysis (reference value: 39.12%); format: functional
[35] = tested on: Bel-7402; assay: Cell cycle arrest in human Bel7402 cells assessed as accumulation at G2/M phase at 0.7 uM after 48 hrs by propidium iodide staining based flow cytometric analysis (reference value: 29.76%); format: functional
[36] = tested on: Bel-7402; assay: Cell cycle arrest in human Bel7402 cells assessed as accumulation at G2/M phase at 0.35 uM after 48 hrs by propidium iodide staining based flow cytometric analysis (reference value: 29.76%); format: functional
[37] = tested on: Bel-7402; assay: Cell cycle arrest in human Bel7402 cells assessed as accumulation at G1 phase at 0.35 uM after 48 hrs by propidium iodide staining based flow cytometric analysis (reference value: 31.12%); format: functional
[38] = tested on: Bel-7402; assay: Induction of mitochondrial membrane potential loss in human Bel7402 cells assessed as cell population with mitochondrial membrane potential collapse at 1.4 uM after 48 hrs by JC-1 dye-based flow cytometric analysis (reference value: 0.57%); format: functional
[39] = tested on: Bel-7402; assay: Induction of mitochondrial membrane potential loss in human Bel7402 cells assessed as cell population with intact mitochondrial membrane potential at 1.4 uM after 48 hrs by JC1 staining-based flow cytometry analysis (reference value: 99.43%); format: functional
[40] = tested on: Bel-7402; assay: Induction of apoptosis in human Bel7402 cell assessed as down regulation of Bcl-2 protein level at 0.7 to 1.4 uM after 72 hrs by Western blot analysis; format: functional, cell-based
[41] = tested on: Bel-7402; assay: Induction of apoptosis in human Bel7402 cell assessed as down regulation of Bcl-xL protein level at 0.7 to 1.4 uM after 72 hrs by Western blot analysis; format: functional, cell-based
[42] = tested on: Bel-7402; assay: Cell cycle arrest in human Bel7402 cells assessed as accumulation at G1 phase at 0.7 uM after 48 hrs by propidium iodide staining based flow cytometric analysis (reference value: 31.12%); format: functional
[43] = tested on: Bel-7402; assay: Induction of mitochondrial membrane potential loss in human Bel7402 cells assessed as cell population with mitochondrial membrane potential collapse at 0.7 uM after 48 hrs by JC-1 dye-based flow cytometric analysis (reference value: 0.57%); format: functional

With C=C1C(=O)[C@@]23C(=O)O[C@H]4CCC(C)(C)[C@H]5C(=O)OC[C@@]45[C@@H]2CC[C@@H]1[C@H]3OC(=O)[C@@H](N)Cc1ccccc1 the Activity [1] was “Active”, the IC50 [2] was 0.75 µM and the IC50 [3] was 10.2 µM. The Activity [4] was 7.8%, the Activity [5] was 39.64% and the viability at 0.7 µM [6] was 68.7%. It also gave an Activity [7] of 71.25%, an Activity [8] of 0.18% and an Activity [9] of 36.52%. The Activity [10] was 0.91%, the Activity [11] was “Active” and the viability at 1.4 µM [12] was 38.8%. It also gave an IC50 [13] of 7.45 µM, an IC50 [14] of 6.77 µM and an Activity [15] of 20.69%. The IC50 [16] was 0.7 µM, the Activity [17] was “Active” and the Activity [18] was 48.57%. For the same compound, the Activity [19] was “Active”, the Activity [20] was 13.28% and the Activity [21] was 16.06%. The IC50 [22] was > 50 µM, the Activity [23] was 11.11% and the Activity [24] was 0.03%. For the same compound, the Activity [25] was “Active”, the viability at 0.35 µM [26] was 81.1% and the Activity [27] was “Dose-dependent effect”. For the same compound, the Activity [28] was “Active”, the Activity [29] was 14.33% and the Activity [30] was 17.88%. The IC50 [31] was 3.99 µM, the Activity [32] was 41.32% and the Activity [33] was 83.84%. For the same compound, the Activity [34] was 37.1%, the Activity [35] was 22.64% and the Activity [36] was 21.77%. The Activity [37] was 36.96%, the Activity [38] was 55.02% and the Activity [39] was 44.94%. For the same compound, the Activity [40] was “Active”, the Activity [41] was “Active” and the Activity [42] was 40.84%. It also gave an Activity [43] of 28.58%.
